Data: US10774084B2, “Adenine derivatives and their use as UV-photoprotective agents” (UNIVERZITA PALACKEHO V OLOMOUCI, priority 2015, dated 2020)

How the values were obtained:
[1] = test system: caspase-3 activity; test: UVB-induced caspase-3 activity in NHDF (Ac-DEVD-AMC); type: cell-based, human
Description: Normal human dermal fibroblasts (NHDF) were used as an in vitro model. Cells were isolated from tissue specimens obtained from healthy patients undergoing plastic surgery at the Department of Plastic and Aesthetic Surgery (University Hospital Olomouc). The use of skin tissue was in accordance with the Ethics Committee of the University Hospital and Faculty of Medicine and Dentistry, Palacky University, Olomouc and all patients signed written informed consent. Fibroblasts were used between the 2nd and 4th passage. For all experiments the fibroblasts were seeded onto 6-well plates at a density of 0.5×10^5 cells/cm^2 of cultivation medium (DMEM supplemented with fetal calf serum (10%, v/v), penicillin (100 mg/ml) and streptomycin (100 U/ml)).
Test compounds included 6-(tetrahydrofuran-2-ylmethylamino)-9-(tetrahydrofuran-2-yl)purine and positive control (rosmarinic acid). […] Intensity of UVB radiation was evaluated before each irradiation by UVB-meter. […] After 4 hours (37° C., 5% CO2) cell damage was evaluated by analysis of caspase-3 activity.
Caspase-3 activity was evaluated by specific substrate (Ac-DEVD-AMC). […] Fluorescence was measured at (400/505 nm) after 1 hour incubation (37° C., dark). Protein content was analyzed spectrophotometrically by Bradford protein assay (INFINITE M200, Tecan, Switzerland). […]

[2] = test system: Normal Human Epidermal Keratinocytes (NHEK); test: In vitro phototoxicity test (neutral red) on NHEK; type: cell-based
Description: Normal Human Epidermal Keratinocytes (NHEK) were used as an in vitro model. Cells were isolated from tissue specimens obtained from healthy patients undergoing plastic surgery at the Department of Plastic and Aesthetic Surgery (University Hospital Olomouc). The use of skin tissue was in accordance with the Ethics Committee of the University Hospital and Faculty of Medicine and Dentistry, Palacky University, Olomouc and all patients signed written informed consent. NHEK were used between the 3rd and 4th passage. […] Intensity of UVA radiation was evaluated before each irradiation by UVA-meter. […]
After UVA exposure PBS with glucose was discarded and serum free medium was applied. After 24 hours (37° C., 5% CO2) cell damage was evaluated by neutral red (NR) incorporation into viable cells. […] After 5 minutes of intensive shaking absorbance was measured at 540 nm. […] Phototoxic effect was evaluated as % of viability of control cells that was calculated from experimental data (absorbance) according to the following equation: […]
AS . . . absorbance of sample (cells pre-incubated with test compound in serum free medium and irradiated)
AC . . . absorbance of control (cells pre-incubated with DMSO in serum free medium and irradiated)
AB . . . absorbance of background (extraction solution)

SMILES: c1nc(NCC2CCCO2)c2ncn(C3CCCO3)c2n1 (stereo not shown) [Compound 1, 6-(tetrahydrofuran-2-ylmethylamino)-9-(tetrahydrofuran-2-yl)purine]
- effect on UVB-induced activity of caspase-3 (in words) ([1]; UVB, NHDF): decreased
- effect on caspase-3 activity in non-irradiated cells (in words) ([1]; non-irradiated NHDF, 2.5-20 μmol/l): did not showed negative effect

SMILES: CN(C)CCCN1c2ccccc2Sc2ccc(Cl)cc21 [chlorpromazine, reference compound]
- viability of NHEK cells ([2]; UVA+, 0.6 μmol/l): below 80 % of control
- viability of NHEK cells ([2]; UVA−, 12.5 μmol/l): below 50%
